Experimental data as given in patent publication US20090143279A1 (priority 2007, published 2009).
Where two headings read alike, the source gives them in different places.

Columns and labels:
reactive oxygen species = type: cell-based, mouse
mtOXPHOS transcripts = type: cell-based, mouse
OXPHOS gene expression = type: cell-based, mouse
[1] = system: cellular dehydrogenase activity
nuOXPHOS transcripts = type: cell-based, mouse
[2] = system: mitochondrial membrane potential; type: cell-based, mouse
cytochrome c = type: cell-based, mouse
[3] = normalized composite Z-score vs mock-treated (DMSO) wells, Conc 20 μM
[4] = composite Z-score vs DMSO, Conc 20 μM
[5] = Table 7, C2C12 myotubes, 48 h, composite Z-score
[6] = composite Z-score vs mock-treated (DMSO) wells, Conc 20 μM
[7] = Conc 20 μM, normalized score vs mock-treated (DMSO) wells
[8] = composite Z-score vs DMSO wells, Conc 20 μM
[9] = composite Z-score vs mock-treated (DMSO) wells, concentration of each compound in μM
[10] = composite Z-score vs DMSO, Conc 10.62 μM

SMILES: COc1ccc(-c2cc(=O)c3c(O)cc(O)c(-c4cc(-c5cc(=O)c6c(O)cc(O)cc6o5)ccc4OC)c3o2)cc1 [isoginkgetin]
- Viability (C2C12 myotubes; [3]): 2.182
- ROS (reactive oxygen species; [3]): 1.106
- mitoOX (mtOXPHOS transcripts; [3]): −1.087
- GE-HTS (OXPHOS gene expression; [3]): −0.589
- MTT [1, 3]: −1.024
- nucOX (nuOXPHOS transcripts; [3]): −0.318
- ΔΨm [2, 3]: −4.387
- cyt c (cytochrome c; [3]): −0.400

SMILES: C=C1CCC2C(CC2(C)C)C(=O)CCC1O (stereo not drawn) [isokobusone]
- Viability (C2C12 myotubes; [4]): −0.090
- ROS (reactive oxygen species; [4]): −0.201
- mitoOX (mtOXPHOS transcripts; [4]): −0.713
- GE-HTS (OXPHOS gene expression; [4]): −0.848
- MTT [1, 4]: −0.507
- nucOX (nuOXPHOS transcripts; [4]): −0.813
- ΔΨm [2, 4]: −0.283
- cyt c (cytochrome c; [4]): 0.480

SMILES: COc1cc(O)ccc1C(C)=O [isopeonol]
- Viability (C2C12 myotubes; [4]): −1.180
- ROS (reactive oxygen species; [4]): −0.219
- mitoOX (mtOXPHOS transcripts; [4]): −0.635
- GE-HTS (OXPHOS gene expression; [4]): −0.109
- MTT [1, 4]: −0.831
- nucOX (nuOXPHOS transcripts; [4]): 0.134
- ΔΨm [2, 4]: 0.271
- cyt c (cytochrome c; [4]): 0.734

SMILES: COc1cc2c(cc1OC)[C@@H]1C(=O)c3ccc4oc(C(C)C)cc4c3O[C@@H]1CO2 [isorotenone, reference compound]
- Viability (C2C12 myotubes; [3]): −1.954
- ROS (reactive oxygen species; [3]): −0.782
- mito-OXPHOS Z (mtOXPHOS transcripts; [5]): −4.57
- mitoOX (mtOXPHOS transcripts; [3]): −4.571
- GE-HTS (OXPHOS gene expression; [3]): −3.751
- MTT [1, 3]: −4.373
- nucOXPHOS Z (nuOXPHOS transcripts; [5]): −3.02
- nucOX (nuOXPHOS transcripts; [3]): −3.017
- ΔΨm [2, 3]: −1.329
- cyt c (cytochrome c; [3]): −3.397

SMILES: CC=Cc1ccc2c(c1)OCO2 [isosafrole]
- Viability (C2C12 myotubes; [6]): −0.798
- ROS (reactive oxygen species; [6]): 0.397
- mitoOX (mtOXPHOS transcripts; [6]): −1.917
- GE-HTS (OXPHOS gene expression; [6]): −1.283
- MTT [1, 6]: −0.913
- nucOX (nuOXPHOS transcripts; [6]): −0.860
- ΔΨm [2, 6]: −1.060
- cyt c (cytochrome c; [6]): 0.462

SMILES: COc1ccc(-c2coc3c(OC)c(OC)cc(OC)c3c2=O)cc1 [isotectorigenin trimethyl ether]
- Viability (C2C12 myotubes; [6]): 0.976
- ROS (reactive oxygen species; [6]): 0.359
- mitoOX (mtOXPHOS transcripts; [6]): 0.418
- GE-HTS (OXPHOS gene expression; [6]): 0.437
- MTT [1, 6]: −1.465
- nucOX (nuOXPHOS transcripts; [6]): 0.426
- ΔΨm [2, 6]: 0.413
- cyt c (cytochrome c; [6]): 0.640

SMILES: COc1cc(O)c2c(=O)c(-c3ccc(O)cc3)coc2c1OC [isotectorigenin, 7-methyl ether]
- Viability (composite Z-score) (C2C12 myotubes; [7]): 0.633
- ROS (composite Z-score) (reactive oxygen species; [7]): 0.644
- mitoOX (composite Z-score) (mtOXPHOS transcripts; [7]): −0.360
- GE-HTS (composite Z-score) (OXPHOS gene expression; [7]): −0.592
- MTT (composite Z-score) [1, 7]: −1.606
- nucOX (composite Z-score) (nuOXPHOS transcripts; [7]): −0.674
- ΔΨm (composite Z-score) [2, 7]: 0.574
- cyt c (composite Z-score) (cytochrome c; [7]): −0.477

SMILES: Cc1cc(NC(=O)C2=C(O)c3ccccc3S(=O)(=O)N2C)no1 [isoxicam]
- Viability (C2C12 myotubes; [8]): 0.010
- ROS (reactive oxygen species; [8]): 0.030
- mitoOX (mtOXPHOS transcripts; [8]): −0.770
- GE-HTS (OXPHOS gene expression; [8]): −0.423
- MTT [1, 8]: −0.152
- nucOX (nuOXPHOS transcripts; [8]): −0.221
- ΔΨm [2, 8]: −1.091
- cyt c (cytochrome c): 0.177
- cyt c (cytochrome c; [8]): −0.169

SMILES: CC(COc1ccccc1)NC(C)C(O)c1ccc(O)cc1 (stereo not drawn) [isoxsuprine]
- Viability (C2C12 myotubes; [4]): −0.141
- ROS (reactive oxygen species; [4]): 1.375
- mitoOX (mtOXPHOS transcripts; [4]): 0.463
- GE-HTS (OXPHOS gene expression; [4]): −0.050
- MTT [1, 4]: −1.776
- nucOX (nuOXPHOS transcripts; [4]): −0.267
- ΔΨm [2, 4]: −1.246
- cyt c (cytochrome c; [4]): 0.295
- cyt c (cytochrome c; [9]): −0.148

SMILES: O=C(O)/C=C/C=C/c1ccccc1 [juarezic acid]
- Viability (C2C12 myotubes; [4]): −0.106
- ROS (reactive oxygen species; [4]): 0.345
- mitoOX (mtOXPHOS transcripts; [4]): −0.650
- GE-HTS (OXPHOS gene expression; [4]): −0.147
- MTT [1, 4]: −0.449
- nucOX (nuOXPHOS transcripts; [4]): 0.108
- ΔΨm [2, 4]: −0.821
- cyt c (cytochrome c; [4]): −0.113

SMILES: NC[C@H]1O[C@H](O[C@H]2[C@H](O)[C@@H](O[C@H]3O[C@H](CO)[C@@H](O)[C@H](N)[C@H]3O)[C@H](N)C[C@@H]2N)[C@H](O)[C@@H](O)[C@@H]1O [kanamycin A]
- Viability (C2C12 myotubes; [9]): −1.015
- ROS (reactive oxygen species; [9]): 1.383
- mitoOX (mtOXPHOS transcripts; [9]): −0.323
- GE-HTS (OXPHOS gene expression; [9]): −0.270
- MTT [1, 9]: −1.149
- nucOX (nuOXPHOS transcripts; [9]): −0.218
- ΔΨm [2, 9]: −0.812
- cyt c (cytochrome c; [9]): −0.131

SMILES: O=C(c1ccccc1)c1ccc2n1CCC2C(=O)O (stereo not drawn) [ketorolac]
- Viability (C2C12 myotubes; [10]): −0.773
- Viability (C2C12 myotubes; [4]): −0.363
- ROS (reactive oxygen species; [10]): 0.482
- ROS (reactive oxygen species; [4]): 0.939
- mitoOX (mtOXPHOS transcripts; [10]): 0.412
- mitoOX (mtOXPHOS transcripts; [4]): −0.033
- GE-HTS (OXPHOS gene expression; [10]): 0.096
- GE-HTS (OXPHOS gene expression; [4]): −0.344
- MTT [1, 10]: −0.563
- MTT [1, 4]: −0.053
- nucOX (nuOXPHOS transcripts; [10]): −0.072
- nucOX (nuOXPHOS transcripts; [4]): −0.468
- ΔΨm [2, 10]: 0.136
- ΔΨm [2, 4]: −0.825
- cyt c (cytochrome c; [10]): 0.315
- cyt c (cytochrome c; [4]): −0.707
